compound: CC1=CC(=CC=C1)NC2=NC(=CS2)C3=CC=NC=C3 + Cc1nc(NC(=O)N2CCC[C@H]2C(N)=O)sc1-c1ccnc(C(C)(C)C(F)(F)F)c1 [Alpelisib] (partner 2 µM); experiment: relative viability (nuclei count vs DMSO), 5 days (fraction); higher = more cells survive; conditions: first compound 0.08 µM
In short: (§1)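 One day after seeding in 1536-well plates, lung cancer cell lines were dosed by pin tool. Dosing was either single-drug or a fixed anchor-drug dose plus five library-drug doses (not always all listed) in √10 steps. After 5 days, nuclei were stained in one fix-and-stain step and counted on 4× images, and relative viability is the nuclei count of treated wells over that of vehicle wells, given as the median of duplicate plates.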

Cell Line | relative viability
HCC-44 | 0.601
LXF-289 | 0.993
BEN | 1.11
HARA | 0.621
NCI-H441 | 0.659
NCI-H2023 | 0.616
A-427 | 1.03
NCI-H460 | 0.331
NCI-H727 | 0.44
NCI-H1755 | 0.869
NCI-H520 | 0.741
NCI-H2405 | 0.679
SW 1573 | 0.746
NCI-H1395 | 0.838
201T | 1
NCI-H1975 | 0.609

Cell Line | relative viability
HCC-827 | 0.946
NCI-H2347 | 0.821
NCI-H1355 | 0.719
NCI-H650 | 0.929
CAL-12T | 1.22
NCI-H1666 | 0.44
EPLC-272H | 0.894
NCI-H23 | 0.567
NCI-H1915 | 1.03
NCI-H1437 | 1.03
NCI-H322M | 0.747
NCI-H1792 | 0.628
NCI-H2085 | 0.887
HCC-15 | 0.792
NCI-H1944 | 0.723
PC-3 [JPC-3] | 0.95

same assay, conditions: first compound 0.253 µM

Cell Line | relative viability
HCC-44 | 0.497
LXF-289 | 1.03
BEN | 0.973
HARA | 0.513
NCI-H441 | 0.75
NCI-H2023 | 0.506
A-427 | 1.06
NCI-H460 | 0.368
NCI-H727 | 0.497
NCI-H1755 | 0.856
NCI-H520 | 0.855
NCI-H2405 | 0.799
SW 1573 | 0.744
NCI-H1395 | 0.909
201T | 1.05
NCI-H1975 | 0.5

Cell Line | relative viability
HCC-827 | 0.913
NCI-H2347 | 1.11
NCI-H1355 | 0.512
NCI-H650 | 1.14
CAL-12T | 1.13
NCI-H1666 | 0.597
NCI-H23 | 0.677
NCI-H1915 | 0.996
NCI-H1437 | 0.968
NCI-H322M | 0.868
NCI-H1792 | 0.523
NCI-H2085 | 1.02
HCC-15 | 0.699
NCI-H1944 | 0.726
PC-3 [JPC-3] | 0.939

same assay, conditions: first compound 0.8 µM

Cell Line | relative viability
HCC-44 | 0.56
LXF-289 | 1.02
BEN | 1.07
HARA | 0.596
NCI-H441 | 0.73
LCLC-97TM1 | 0.298
NCI-H2023 | 0.561
A-427 | 1.1
NCI-H460 | 0.375
NCI-H727 | 0.53
NCI-H1755 | 0.826
NCI-H520 | 0.726
NCI-H2405 | 0.578
SW 1573 | 0.593
NCI-H1395 | 1.23
201T | 1.04
NCI-H1975 | 0.553

Cell Line | relative viability
HCC-827 | 0.907
NCI-H2347 | 0.614
NCI-H1355 | 0.483
NCI-H650 | 1.16
CAL-12T | 1.33
NCI-H1666 | 0.447
EPLC-272H | 0.927
NCI-H23 | 0.727
NCI-H1915 | 1.07
NCI-H1437 | 0.885
NCI-H322M | 0.771
NCI-H1792 | 0.567
NCI-H2085 | 0.946
HCC-15 | 0.845
NCI-H1944 | 0.782
PC-3 [JPC-3] | 0.845

same assay, conditions: first compound 2.53 µM

Cell Line | relative viability
HCC-44 | 0.644
LXF-289 | 1.03
BEN | 0.856
HARA | 0.724
NCI-H441 | 0.577
LCLC-97TM1 | 0.258
NCI-H2023 | 0.516
NCI-H460 | 0.37
NCI-H727 | 0.508
NCI-H1755 | 0.815
NCI-H520 | 1.09
NCI-H2405 | 0.87
SW 1573 | 0.732
NCI-H1395 | 1.01
201T | 0.96
NCI-H1975 | 0.475
HCC-827 | 1.03
NCI-H2347 | 1.07
NCI-H1355 | 0.51
CAL-12T | 1.07
NCI-H1666 | 0.472
NCI-H23 | 0.634
NCI-H1915 | 1.07
NCI-H1437 | 0.922
NCI-H322M | 0.903
NCI-H1792 | 0.443
NCI-H2085 | 0.833
HCC-15 | 0.841
NCI-H1944 | 0.795
PC-3 [JPC-3] | 0.875

same assay, conditions: first compound 8 µM

Cell Line | relative viability
HCC-44 | 0.608
LXF-289 | 0.91
BEN | 0.91
HARA | 0.542
NCI-H441 | 0.811
LCLC-97TM1 | 0.238
NCI-H2023 | 0.563
A-427 | 0.844
NCI-H460 | 0.307
NCI-H727 | 0.469
NCI-H1755 | 0.548
NCI-H520 | 1.02
NCI-H2405 | 0.699
SW 1573 | 0.625
NCI-H1395 | 0.992
201T | 0.853
NCI-H1975 | 0.358

Cell Line | relative viability
HCC-827 | 0.836
NCI-H2347 | 0.993
NCI-H1355 | 0.587
NCI-H650 | 1.11
CAL-12T | 1.22
NCI-H1666 | 0.298
EPLC-272H | 0.869
NCI-H23 | 0.738
NCI-H1915 | 0.938
NCI-H1437 | 0.763
NCI-H322M | 0.853
NCI-H1792 | 0.589
NCI-H2085 | 0.705
HCC-15 | 0.879
NCI-H1944 | 0.646
PC-3 [JPC-3] | 0.84

compound: Cc1ccc(NC(=O)c2ccc(CN3CCN(C)CC3)cc2)cc1Nc1nc(-c2cccnc2)cs1 [Masitinib] + CC(=O)Nc1cccc(-n2c(=O)n(C3CC3)c(=O)c3c(Nc4ccc(I)cc4F)n(C)c(=O)c(C)c32)c1 [Trametinib] (partner 0.02 µM); experiment: as above; conditions: first compound 0.01 µM
In short: as §1

Cell Line | relative viability
HCC-44 | 0.811
LXF-289 | 0.638
BEN | 1.15
HARA | 0.767
NCI-H441 | 0.5
LCLC-97TM1 | 0.184
NCI-H2023 | 0.509
A-427 | 0.623
NCI-H460 | 0.13
NCI-H727 | 0.333
NCI-H1755 | 0.633
NCI-H520 | 0.752
NCI-H2405 | 0.651
SW 1573 | 0.666
NCI-H1395 | 1.01
201T | 0.599

Cell Line | relative viability
NCI-H1975 | 0.302
HCC-827 | 0.508
NCI-H2347 | 0.26
NCI-H1355 | 0.439
NCI-H650 | 1.05
CAL-12T | 0.374
NCI-H1666 | 0.807
EPLC-272H | 0.28
NCI-H23 | 0.305
NCI-H1437 | 0.511
NCI-H322M | 0.576
NCI-H1792 | 0.427
NCI-H2085 | 0.583
HCC-15 | 0.364
PC-3 [JPC-3] | 0.723

same assay, conditions: first compound 0.03162 µM

Cell Line | relative viability
HCC-44 | 1.04
LXF-289 | 0.707
BEN | 0.964
HARA | 0.627
NCI-H441 | 0.488
LCLC-97TM1 | 0.19
NCI-H2023 | 0.448
A-427 | 0.74
NCI-H460 | 0.121
NCI-H727 | 0.375
NCI-H1755 | 0.83
NCI-H520 | 0.634
NCI-H2405 | 0.605
SW 1573 | 0.603
NCI-H1395 | 1.03
201T | 0.712
NCI-H1975 | 0.364

Cell Line | relative viability
HCC-827 | 0.532
NCI-H2347 | 0.262
NCI-H1355 | 0.35
NCI-H650 | 1.1
CAL-12T | 0.347
NCI-H1666 | 0.893
EPLC-272H | 0.35
NCI-H23 | 0.368
NCI-H1915 | 0.635
NCI-H1437 | 0.507
NCI-H322M | 0.465
NCI-H1792 | 0.307
NCI-H2085 | 0.534
HCC-15 | 0.373
NCI-H1944 | 0.457
PC-3 [JPC-3] | 0.651

same assay, conditions: first compound 0.1 µM

Cell Line | relative viability
HCC-44 | 0.989
LXF-289 | 0.674
BEN | 1.13
HARA | 0.946
NCI-H441 | 0.547
LCLC-97TM1 | 0.19
NCI-H2023 | 0.531
A-427 | 0.842
NCI-H460 | 0.139
NCI-H727 | 0.417
NCI-H1755 | 0.788
NCI-H520 | 0.873
NCI-H2405 | 0.705
SW 1573 | 0.551
NCI-H1395 | 1.04
201T | 0.628

Cell Line | relative viability
NCI-H1975 | 0.374
HCC-827 | 0.539
NCI-H2347 | 0.291
NCI-H1355 | 0.497
NCI-H650 | 1.03
CAL-12T | 0.325
NCI-H1666 | 0.873
EPLC-272H | 0.376
NCI-H23 | 0.469
NCI-H1437 | 0.52
NCI-H322M | 0.519
NCI-H1792 | 0.37
NCI-H2085 | 0.556
HCC-15 | 0.389
PC-3 [JPC-3] | 0.733

same assay, conditions: first compound 0.3162 µM

Cell Line | relative viability
HCC-44 | 0.853
LXF-289 | 0.747
BEN | 1.11
NCI-H441 | 0.336
LCLC-97TM1 | 0.231
NCI-H2023 | 0.518
A-427 | 0.75
NCI-H460 | 0.13
NCI-H727 | 0.366
NCI-H1755 | 0.766
NCI-H520 | 0.76
NCI-H2405 | 0.576
SW 1573 | 0.542
NCI-H1395 | 1.11
201T | 0.745
NCI-H1975 | 0.237

Cell Line | relative viability
HCC-827 | 0.603
NCI-H2347 | 0.293
NCI-H1355 | 0.329
NCI-H650 | 1.28
CAL-12T | 0.307
NCI-H1666 | 0.565
EPLC-272H | 0.268
NCI-H23 | 0.375
NCI-H1915 | 0.302
NCI-H1437 | 0.494
NCI-H322M | 0.637
NCI-H1792 | 0.503
NCI-H2085 | 0.514
HCC-15 | 0.234
NCI-H1944 | 0.349
PC-3 [JPC-3] | 0.576

same assay, conditions: first compound 1 µM

Cell Line | relative viability
HCC-44 | 1.07
LXF-289 | 0.699
BEN | 1.09
HARA | 0.897
NCI-H441 | 0.397
LCLC-97TM1 | 0.186
NCI-H2023 | 0.549
A-427 | 0.676
NCI-H460 | 0.13
NCI-H727 | 0.334
NCI-H1755 | 0.699
NCI-H520 | 0.598
NCI-H2405 | 0.594
SW 1573 | 0.581
NCI-H1395 | 0.973
201T | 0.719
NCI-H1975 | 0.323
HCC-827 | 0.547
NCI-H2347 | 0.288
NCI-H1355 | 0.468
NCI-H650 | 0.99
CAL-12T | 0.419
NCI-H1666 | 0.788
EPLC-272H | 0.237
NCI-H23 | 0.354
NCI-H1915 | 0.302
NCI-H1437 | 0.449
NCI-H322M | 0.566
NCI-H1792 | 0.498
NCI-H2085 | 0.524
